From ChEMBL document CHEMBL3769383, “Cefsulodin Inspired Potent and Selective Inhibitors of mPTPB, a Virulent Phosphatase from Mycobacterium tuberculosis” (ACS Med Chem Lett, 2015)

Columns and labels:
[1] = Inhibition of Mycobacterium tuberculosis PTPB expressed in Escherichia coli BL21/DE3 cells using pNPP as substrate after 5 mins by spectrophotometry
BL21-DE3 = assay: Potency index, ratio of SPAA IC50 to compound IC50 for Mycobacterium tuberculosis PTPB expressed in Escherichia coli BL21/DE3 cells
[2] = Inhibition of Mycobacterium tuberculosis PTPB

SMILES | IC50 [1] | Ratio IC50 (BL21-DE3) | IC50 [2]
O=C(NCCc1ccc(Cl)cc1Cl)C(c1ccccc1)S(=O)(=O)O (racemic) | 290 nM | – | –
CCCNC(=O)C(c1ccccc1)S(=O)(=O)O (racemic) | 16000 nM | 11 | –
O=C(Nc1cccc2ccccc12)C(c1ccccc1)S(=O)(=O)O (racemic) | 720 nM | – | –
O=C(Nc1ccc(-c2ccccc2)cc1)C(c1ccccc1)S(=O)(=O)O (racemic) | 196 nM | – | –
O=C(C(c1ccccc1)S(=O)(=O)O)N1CCCCC1 (racemic) | 950 nM | 180 | –
O=C(C(c1ccccc1)S(=O)(=O)O)N1CCC(Cc2ccccc2)CC1 (racemic) | 40 nM | – | –
NC(=O)c1cc[n+](CC2=C(C(=O)O)N3C(=O)[C@@H](NC(=O)[C@@H](c4ccccc4)S(=O)(=O)[O-])[C@H]3SC2)cc1 [CEFSULODIN SODIUM] | – | – | 16000 nM
